# According to patent US20100240598A1, “PEPTIDES AND PEPTIDE MIMETICS TO INHIBIT THE ONSET AND/OR PROGRESSION OF FIBROTIC AND/OR PRE-FIBROTIC PATHOLOGIES” (THE REGENTS OF THE UNIVERSITY OF CALIFORNIA, priority 2009, published 2010):
# Entries after “also recorded” stand apart in the source; their conditions may differ. Like-named read-outs stand apart in the source and are kept apart here.
# What was measured:
# ApoE null mice [1] = experiment: HDL function after D-4F and/or statin in drinking water for 24 hours; assay type: in vivo
# [2] = Association with pre-beta HDL/HDL and clearance from the circulation after an oral dose
# human LDL = experiment: Treating human LDL in vitro, removal of seeding molecules; assay type: biochemical
# Excerpt: (§1) We discovered that normal HDL inhibits three steps in the formation of mildly oxidized LDL. […] These seeding molecules were required for cocultures of human artery wall cells to be able to oxidize LDL and for the LDL to induce the artery wall cells to produce monocyte chemotactic activity.
# human volunteers = experiment: LDL oxidation resistance after infusion of apo A-I into humans; assay type: in vivo
# Excerpt: as §1
# mice = experiment: LDL oxidation resistance after injection of apo A-I into mice; assay type: in vivo
# Excerpt: as §1
# Obese Zucker rats = experiment: Plasma glucose and lipid hydroperoxides in obese Zucker rats given D-4F; assay type: in vivo; settings: 5.0 mg/kg/day intraperitoneal, 10 days, rats 26 weeks of age
# Description: Obese Zucker rats 26 weeks of age were bled and then treated with daily intraperitoneal injections of D-4F (5.0 mg/kg/day). After 10 days the rats were bled again plasma glucose and lipid hydroperoxides (LOOH) were determined. *p=0.027; ** p=0.0017.
# LDL receptor null mice = experiment: HDL protective capacity in LDL receptor null mice given peptide in drinking water; assay type: in vivo; settings: 0.25 or 0.5 mg per ml drinking water, 24 or 48 hrs; mouse HDL at 100 μg/ml
# Description: D-4F designated as F, or the apoJ peptide made from D amino acids (D-J336, designated as J) was added to the drinking water of LDL receptor null mice (4 per group) at 0.25 or 0.5 mg per ml of drinking water. After 24- or 48-hrs blood was collected from the mice and their HDL was isolated and tested for its ability to protect against LDL-induced monocyte chemotactic activity. Assay controls included culture wells that received no lipoproteins (no addition), or control human LDL alone (designated as LDL, 200 μg cholesterol/ml), or control LDL+control human HDL (designated as +HDL, 350 μg HDL cholesterol). For testing the mouse HDL, the control LDL was added together with mouse HDL (+F HDL or +J HDL) to artery wall cell cultures. The mouse HDL was added at 100 μg cholesterol/ml respectively.
# ApoE null mice [3] = experiment: Trabecular bone mineral density after D-4F in drinking water; assay type: in vivo; settings: drinking water for 6 weeks
# [4] = mouse, in vivo, po
# ApoE null mice [5] = experiment: Protection against LDL-induced monocyte chemotactic activity by HDL from apo E null mice given oral peptides; assay type: in vivo; settings: for activity of murine HDL against LDL-induced monocyte chemotactic activity: drinking water, 24 hrs, murine HDL at 100 μg/ml
# Description: After 24 hrs blood was collected, plasma fractionated by FPLC and fractions containing LDL (designated as mLDL for murine LDL) and fractions containing HDL (designated as mHDL) were separately pooled and HDL protective capacity against LDL oxidation as determined by LDL-induced monocyte chemotactic activity was determined. For the assay controls the culture wells received no lipoproteins (no additions), mLDL alone (at 200 μg cholesterol/ml), or mLDL+standard normal human HDL (designated as Cont. h HDL, at 350 μg HDL cholesterol/ml).
# For testing the murine HDL, mLDL together with murine HDL (+F mHDL or +J mHDL) were added to artery wall cell cultures. […] The murine HDL was used at 100 μg cholesterol/ml.
# ApoE null mice [6] = experiment: HDL and pre-beta HDL inhibition of LDL-induced monocyte chemotaxis after feeding solution-phase synthesized D-4F; assay type: in vivo; settings: 5 micrograms fed, bled twelve hours after feeding was started
# Excerpt: ApoE null mice were fed 5 micrograms of the D-4F synthesized as described above (Frgmnt) or the mice were given the same amount of mouse chow without D-4F (Chow). Twelve hours after the feeding was started, the mice were bled and their plasma was fractionated on FPLC.
# ApoE null mice [7] = experiment: HDL Inflammatory Index after D-4F or Reverse D-4F by stomach tube; assay type: in vivo; settings: 0, 3, 6, 12 or 25 micrograms by stomach tube, blood 7 hours later
# Description: Female apoE null mice were administered by stomach tube 0, 3, 6, 12, or 25 micrograms of D-4F or Reverse D-4F in 100 microliters of water. Blood was obtained 7 hours later and the plasma was fractionated by FPLC. A standard control human LDL was added to human artery wall cells at a concentration of 100 micrograms of LDL-cholesterol/mL (LDL). The resulting monocyte chemotactic activity was normalized to 1.0. The same LDL at the same concentration was added to the human artery wall cells together with HDL at 50 micrograms HDL-cholesterol/mL from a normal human (hHDL) or from the apoE null mice that received the dose of D-4F or Reverse D-4F shown on the X-axis. The resulting monocyte chemotactic activity was normalized to that of the LDL added without HDL. The resulting value is the HDL Inflammatory Index. The results shown are the Mean±S.D. for the data from three separate experiments.
# [8] = tested on: mice fed an atherogenic diet; settings: 20 μg daily; cited from earlier work
# [9] = tested on: Human aortic endothelial cells; experiment: Prevention of LDL-induced monocyte chemotactic activity in vitro, co-incubation; assay type: cell-based; settings: co-incubation with control human LDL 200 μg protein/ml, overnight
# Description: FIG. 1 illustrates a comparison of the effect of […] et al. (2002) Circulation, 105: 290-292) with the effect of an apoJ peptide made from D amino acids (D-J336, […], SEQ ID NO:999)) on the prevention of LDL-induced monocyte chemotactic activity in vitro in a co-incubation. […] D-J336 or D-4F was added to other wells in a concentration range as indicated plus control human LDL (200 μg protein/ml). Following overnight incubation, the supernatants were assayed for monocyte chemotactic activity.
# PON1 = settings: added to the drinking water, 24 hrs
# Description: After 24 hrs blood was collected and plasma was assayed for PON1 activity.
# ApoE null mice [10] = experiment: HDL protective capacity against PAPC oxidation by HPODE, HDL from apo E null mice given oral peptides; assay type: in vivo; settings: added to the drinking water, 24 hrs; murine HDL 100 μg cholesterol/ml
# Description: After 24 hrs blood was collected, plasma fractionated by FPLC and fractions containing HDL (designated as mHDL) were pooled and HDL protective capacity against PAPC oxidation as determined by the induction of monocyte chemotactic activity was determined. For the assay controls the culture wells received no lipoproteins (no additions), the phospholipid PAPC at 20 μg/ml+HPODE, at 1.0 μg/ml, or PAPC+HPODE plus standard normal human HDL (at 350 μg HDL cholesterol/ml and designated as +Cont. h HDL).
# For testing the murine HDL, PAPC+HPODE together with murine HDL (+F mHDL or +J mHDL) were added to artery wall cell cultures. […] The murine HDL was used at 100 μg cholesterol/ml.
# ApoE null mice [11] = experiment: Ability of LDL from apoE null mice given oral peptides to induce monocyte chemotactic activity (LDL susceptibility to oxidation); assay type: in vivo; settings: added to the drinking water, 24 hrs
# Description: FIG. 5 illustrates the effect of oral apo A-1 peptide mimetic and apoJ peptide on LDL susceptibility to oxidation. […] After 24 hrs blood was collected from the mice shown in FIG. 4, plasma fractionated by FPLC and fractions containing LDL (designated as mLDL for murine LDL) were pooled and LDL susceptibility to oxidation as determined by induction of monocyte chemotactic activity was determined. For the assay controls the culture wells received no lipoproteins (no additions), mLDL alone (at 200 μg cholesterol/ml), or mLDL+standard normal human HDL (designated as Cont. h HDL, 350 μg HDL cholesterol).
# Murine LDL, mLDL, from mice that received the D-4F (F mLDL) or those that received the apoJ peptide (J mLDL) were added to artery wall cell cultures.
# [12] = tested on: Human aortic endothelial cells; experiment: Prevention of LDL-induced monocyte chemotactic activity by pre-treatment (pre-incubation) of artery wall cells; assay type: cell-based; settings: 6 hrs pre-incubation, then control human LDL 200 μg protein/ml
# Description: FIG. 2 illustrates a comparison of the effect of D-4F with the effect of D-J336 on the prevention of LDL induced monocyte chemotactic activity in a pre-incubation. Human aortic endothelial cells were pre-incubated with D-J336 or D-4F at 4, 2, and 1 μg/ml for DJ336 or 100, 50, 25, and 12.5 μg/ml for D-4F for 6 hrs. The cultures were then washed and were incubated with medium alone (no addition), or with control human LDL (200 μg protein/ml), or with control human LDL+control human HDL (350 μg HDL protein/ml) as assay controls. The wells that were pre-treated with peptides received the control human LDL at 200 μg protein/ml. Following overnight incubation, the supernatants were assayed for monocyte chemotactic activity.
compound,measurement,setting,value
"CC(C)c1c(C(=O)Nc2ccccc2)c(-c2ccccc2)c(-c2ccc(F)cc2)n1CC[C@@H](O)C[C@@H](O)CC(=O)O [atorvastatin, reference compound]","HDL function, statin alone",ApoE null mice [1]; 0.05 mg/ml in drinking water for 24 hours,did not improve HDL function
Ac-L V G R Q L E E F L-NH2 [D-[113-122]apoJ],association with pre-beta HDL and HDL,[2]; after an oral dose,slowly associates with pre-beta HDL and to a lesser extent with HDL
same,time remaining associated with HDL fractions,"[2]; mouse, in vivo",at least 36 hours
"apo A-I: the major protein of HDL, apolipoprotein A-I","effect on seeding molecules (HPODE, HPETE) of human LDL",human LDL,removed seeding molecules from the LDL
same,"oxidation of LDL isolated after infusion, by human artery wall cells",human volunteers,resistant to oxidation by human artery wall cells
same,"oxidation of LDL isolated after injection, by human artery wall cells",mice,resistant to oxidation by human artery wall cells
Ac-DWFKAFYDKVAEKFKEAF-NH2 [Peptide D-4F],"symptoms of diabetes (blood glucose, lipid hydroperoxides)",Obese Zucker rats,effective in mitigating symptoms of diabetes
same,activity of mouse HDL in preventing control LDL from inducing monocyte chemotactic activity,LDL receptor null mice,as active as 350 μg/ml of control human HDL
same,trabecular bone mineral density,ApoE null mice [3],dramatically increased
same,association with pre-beta HDL and HDL,[4],rapidly associates with pre-beta HDL and HDL
same,detectability in the circulation,[4],essentially non-detectable
same,"HDL function, D-4F alone",ApoE null mice [1]; 1 μg/ml in drinking water for 24 hours,did not significantly improve HDL function; also recorded: no effect on HDL function
same,"HDL function, D-4F together with statin",ApoE null mice [1]; D-4F 1 μg/ml together with 0.05 mg/ml of atorvastatin or pravastatin in drinking water,significant improvement in HDL function
same,"anti-inflammatory activity of apoE null HDL compared with normal human HDL, D-4F together with statin","ApoE null mice [1]; mouse HDL at 50 μg/ml of HDL-cholesterol, HPODE oxidizing PAPC in cocultures of human artery wall cells",as anti-inflammatory as 350 μg/ml of normal human HDL; also recorded: as effective as normal human HDL at 350 μg/ml of HDL-cholesterol
same,activity of murine HDL against LDL-induced monocyte chemotactic activity,ApoE null mice [5],as active as 350 μg/ml of normal human HDL
same,biological activity in producing HDL and pre-beta HDL that inhibit LDL-induced monocyte chemotaxis,ApoE null mice [6],very biologically active
same,"biological activity (HDL Inflammatory Index), D-4F versus Reverse D-4F",ApoE null mice [7],not significantly different
Ac-D-W-L-K-A-F-Y-D-K-V-F-E-K-F-K-E-F-F-NH2 (Ac-DWLKAFYDKVFEKFKEFF-NH2) [Peptide 5F],"LDL oxidation and induction of monocyte chemotactic activity, PBS-injected versus peptide-injected mice",[8],more readily oxidized and more readily induced monocyte chemotactic activity
Ac-LLEQLNEQFNWVSRLANLTQGE-NH2 [D-J336],"in vitro concentration that prevents LDL-induced monocyte chemotactic activity, relative to the concentration required for D-4F",[9],10 to 25 times less
same,activity of mouse HDL in preventing control LDL from inducing monocyte chemotactic activity,LDL receptor null mice,as active as 350 μg/ml of control human HDL
same,potency in increasing paraoxonase activity compared with D-4F,PON1,at least as potent as D-4F
same,potency in causing HDL to inhibit oxidation of PAPC by HPODE compared with D-4F,ApoE null mice [10],as potent as D-4F
same,potency in enhancing HDL protective capacity compared with D-4F,"ApoE null mice [5]; added to the drinking water, apo E null mice",as potent as D-4F
same,activity of murine HDL against LDL-induced monocyte chemotactic activity,ApoE null mice [5],as active as 350 μg/ml of normal human HDL
same,potency in rendering LDL resistant to oxidation by human artery wall cells compared with D-4F,ApoE null mice [11],slightly more potent than D-4F
same,potency in preventing LDL oxidation by artery wall cells in vitro relative to D-4F,[12],10-25 times more potent
Ac-FAEKFKEAVKDYFAKFWD-NH2 [Reverse D-4F],"biological activity (HDL Inflammatory Index), D-4F versus Reverse D-4F",ApoE null mice [7],not significantly different
